Laboratory results taken from patent publication US6800464B2, “Arthrobacter D-carbamoylase and methods of preparing enantiomerically enriched D-amino acids” (Degussa AG, priority 2001, dated 2004).
Where two headings read alike, the source gives them in different places.

Legend:
[1] = biological target: D-carbamoylase from Arthrobacter crystallopoietes DSM 20117 (Crystallibacter crystallopoietes, UniProt A0A1H1C375); test: Substrate specificity of the purified D-carbamoylase (relative conversion of carbamoyl substrates); format: biochemical; settings: for Rel. act. / conversion of substrate (in words): 30° C.; for Rel. act.: 0.1 M potassium phosphate buffer pH 8.0, 20 mM isomer mixture or 10 mM pure isomer, D,L-Carbamoyl-phenylalanine set at 100% (2 U/mg); for conversion of substrate (in words): assay conditions of substrate spectrum, pH 8.0
Protocol: (§1) The homogeneously purified D-carbamoylase with the His-tag and ttg start codon (pMW1 —FIG. 5) was used for characterization of the enzyme obtained in this way. The enzyme was present in 0.1 M KPB pH 8.0.
To determine the substrate spectrum, the enzyme was incubated at a reaction temperature of 30° C. with the particular substrate in the presence of 0.1 M potassium phosphate buffer pH 8.0. To ensure the same concentration of the D-isomer, if the substrate was present as an isomer mixture a concentration of 20 mM was established; if the substrate was present as a pure isomer a concentration of 10 mM was established.

purified D-carbamoylase = test: Cofactor dependence: inactivation by complexing agents and sulfhydryl reagents, reactivation by metal ions; format: biochemical, Arthrobacter crystallopoietes DSM 20117; settings: for inactivation of the enzyme by complexing agent: 10 mM, incubation at 25° C., 8-HQSA: within less than two hours
Protocol: as §1
In order to be able to differentiate the inactivation by the complexing agent from the thermal inactivation, an aliquot of the enzyme solution was co-incubated without 8-HQSA and the activity was monitored with respect to time. It was concluded that to reactivate the enzyme, the 8-HQSA had to be removed from the enzyme by gel filtration, and incubation had to be carried out in the presence of 2 mM metal ions. However, neither Cu^2+, Co^2+, Mn^2+, Mg^2+, Fe^2+ nor Zn^2+ led to a reactivation of the enzyme.

[2] = substrate: NC(=O)N[C@H](Cc1c[nH]c2ccccc12)C(=O)O; test: Determination of kinetic parameters (Km, vmax) of the D-carbamoylase; format: biochemical, Arthrobacter crystallopoietes DSM 20117; settings: other: Michaelis-Menten kinetics, Enzymfit program; pH 8.0
Protocol: as §1
For determination of Vmax and Km, the rate of reaction v was plotted as a function of the substrate concentration. The calculation of the kinetic parameters was carried out via the Enzymfit program (developed at the Institute of Bioprocess Technology, University of Stuttgart). […] The reaction can be described here by Michaelis-Menten kinetics (see equation 1). [formula]

[3] = Determination of the optimum pH of the purified D-carbamoylase; format: biochemical; settings: pH range 6.5 to 9.0, DL-C-phenylalanine, 30° C., 100 mM buffers
Protocol: To determine the optimum pH of the purified D-carbamoylase, conversions were carried out at various pH values in a range from 6.5 to 9.0 with DL-C-phenylalanine as the substrate at 30° C. In order to be able to rule out concentration effects, the buffer concentration of all the buffers used (Tris, potassium phosphate and Tris-glycine) was adjusted to a value of 100 mM. The activity maximum of the D-carbamoylase was at pH 8.

CSCCC(NC(N)=O)C(=O)O (racemic) [D,L-Carbamoyl-methionine]
Rel. act. [1]: 13%

NC(=O)NC(CO)C(=O)O (racemic) [D,L-Carbamoyl-serine]
Rel. act. [1]: 35%

CC(C)(C)C(NC(N)=O)C(=O)O (racemic) [D,L-Carbamoyl-tert-leucine]
Rel. act. [1]: 18%

CC(C)C(NC(N)=O)C(=O)O (racemic) [D,L-Carbamoyl-valine]
Rel. act. [1]: 31%

O=C(O)c1ccccc1[N+](=O)[O-] [2-nitrobenzoate]
inactivation of the D-carbamoylase by sulfhydryl reagents (purified D-carbamoylase; 1 mM): complete inactivation

O=S(=O)(O)c1ccc(O)c2ncccc12 [8-hydroxyquinolinesulfonic acid]
inactivation of the enzyme by complexing agent (purified D-carbamoylase): compete inhibition

C[C@@H](NC(N)=O)C(=O)O [D-Carbamoyl-alanine]
Rel. act. [1]: 510% | conversion relative to all other substrates ([1]; compared with all other substrates of table 5): at least five times better

NC(=O)N[C@H](Cc1c[nH]c2ccccc12)C(=O)O [D-Carbamoyl-tryptophan]
Rel. act. [1]: 80%

O=C(O)CN(CCN(CC(=O)O)CC(=O)O)CC(=O)O [EDTA]
inactivation of the enzyme by complexing agent (purified D-carbamoylase): no inactivation

NC(=O)N[C@@H](Cc1c[nH]c2ccccc12)C(=O)O [L-carbamoyl-tryptophan]
conversion of substrate (in words) [1]: not converted

CC(C)[C@H](NC(N)=O)C(=O)O [L-carbamoyl-valine]
conversion of substrate (in words) [1]: not converted

O=C(O)CI [iodine acetate]
inactivation of the D-carbamoylase by sulfhydryl reagents (purified D-carbamoylase): complete inactivation

O=C(O)c1cc[c]([Hg][Cl])cc1 [para-chloro-mercury benzoate]
inactivation of the D-carbamoylase by sulfhydryl reagents (purified D-carbamoylase; 1 mM): complete inactivation

β-Ureido-propionate
Rel. act. [1]: 0% | conversion of substrate (in words) [1]: not converted

B1: D-carbamoylase from Arthrobacter crystallopoietes DSM 20117 (Crystallibacter crystallopoietes) (protein)
chain: MAKNLMLAVAQVGGIDSSESRPEVVARLIALLEEAASQGAELVVFPELTLTTFFPRTWFEEGDFEEYFDKSMPNDDVAPLFERAKDLGVGFYLGYAELTSDEKRYNTSILVNKHGDIVGKYRKMHLPGHADNREGLPNQHLEKKYFREGDLGFGVFDFHGVQVGMCLCNDRRWPEVYRSLALQGAELVVLGYNTPDFVPGWQEEPHAKMFTHLLSLQAGAYQNSVFVAAAGKSGFEDGHHMIGGSAVAAPSGEILAKAAGEGDEVVVVKADIDMGKPYKESVFDFAAHRRPDAYGIIAERKGRGAPLPVPFNVND
Km [2]: 7.5 mM | Vmax [2]: 2.4 U/mg

B2: D-carbamoylase: homogeneously purified recombinant D-carbamoylase from Arthrobacter crystallopoietes DSM 20117 (SEQ ID NO: 2) (protein)
chain: MAKNLMLAVAQVGGIDSSESRPEVVARLIALLEEAASQGAELVVFPELTLTTFFPRTWFEEGDFEEYFDKSMPNDDVAPLFERAKDLGVGFYLGYAELTSDEKRYNTSILVNKHGDIVGKYRKMHLPGHADNREGLPNQHLEKKYFREGDLGFGVFDFHGVQVGMCLCNDRRWPEVYRSLALQGAELVVLGYNTPDFVPGWQEEPHAKMFTHLLSLQAGAYQNSVFVAAAGKSGFEDGHHMIGGSAVAAPSGEILAKAAGEGDEVVVVKADIDMGKPYKESVFDFAAHRRPDAYGIIAERKGRGAPLPVPFNVND
modifications: OTHER INFORMATION: … DNA
activity maximum (optimum pH) [3]: 8
